“Also recorded” adds a separate entry of the source.
Legend:
SR39-transduced cells = assay: Cell proliferation assay, low copy number, SR39; assay type: cell-based
Experimental: (§1) In another experiment, the cells were transduced with a low copy number of the plasmids and, thus, differences between the different nucleoside analogs could be observed. […] Ganciclovir at high concentrations is also toxic to non-transduced cells.
(§2) Finally, the cell proliferation assay was also performed with the SR39 or HSV-TK-transduced cells treated with penciclovir. […] Thus, penciclovir may be used as the prodrug with the suicide gene construct, such as HSV-TK, SR39, or UL97.

HSV-TK-transduced cells = assay: Cell proliferation assay, low copy number, HSV-TK; assay type: cell-based
Experimental: as §1, §2

[1] = test system: TK-PSC (HS415 pluripotent stem cells expressing HSV-TK under the Ki67 promoter); assay: Calcein cell viability assay, ganciclovir on TK-PSC; assay type: cell-based, human
Experimental: (§3) Cell Proliferation Measurement by Calcein Assay:
(§4) Cells were plated onto a 96 wells pre-coated with polyornothine+ECM (1/50). Respectively 1000 cells for pluripotent stem cells, 5000 cells for early NPC and 30000 cells for late NPC. Ganciclovir (Cemevene diluted in PBS, Roche) treatment was added the day after cell plating for PSC, 3 days later for early NPC and one week later for late NPC. Calcein (2 μM) was added for different time course of ganciclovir treatment (24H to 96H). Cell survival was measured by calcein integration after 24h of incubation in a 37° C. incubator.

[2] = test system: regular PSCs (not transduced with the TK construct); assay: Calcein cell viability assay, ganciclovir on control PSC; assay type: cell-based, human; details: concentrations of 40 μM
Experimental: as §3, §4

TK-NPCs = assay: Calcein cell viability assay, ganciclovir time course on TK-NPC; assay type: cell-based, human; details: 40 μM
Experimental: as §3, §4

non-transduced cells = assay: Cell proliferation assay, non-transduced cells; assay type: cell-based
Experimental: as §1, §2

control neurons = assay: Calcein cell viability assay, ganciclovir on control neurons; assay type: cell-based, human; details: concentrations up to 40 μM
Experimental: as §3, §4

TK-NPC transplants = assay: Transplantation of 2-3 week NPC neurospheres into striatum and ganciclovir treatment; assay type: in vivo, mice
Experimental: FIGS. 3A-3C: Schedule of cell transplantation and ganciclovir treatment. Different transplantation and ganciclovir treatment protocols were used. (A) Schematic representation of the differentiation protocol towards DA neurons. Pluripotent stem cells were cultured as neurospheres for 1 week for midbrain orientation phase, followed by a 2 or 3 week-maturation phase. (B) Transplantation of undifferentiated pluripotent stem cells with early or late ganciclovir treatment. Early treatment: undifferentiated pluripotent stem cells were transplanted and ganciclovir (or PBS control) was applied by daily intra-peritoneal injection from day 4 to day 19 post-transplantation. Late treatment: undifferentiated pluripotent stem cells were transplanted and ganciclovir (or PBS control) was applied by daily intra-peritoneal injection from day 30 to day 45 post-transplantation. (C) Transplantation of 2 or 3 week NPC: NPC containing—neurospheres were dissociated and transplanted into mice striatum. […] For all protocols, animals were sacrificed 1 month after termination of ganciclovir treatment.
(§5) Stereotaxic engraftment and ganciclovir treatment:
(§6) Undifferentiated pluripotent stem cells (20000 cells/μL) and dissociated neurospheres (100.000 cells/μL) were injected in the striatum of anesthetized mice using a 27-G Hamilton syringe. Injection coordinates for lateral striatum were: bregma=0.74 mm, mediolateral=2.25 mm, dorsoventral=3.5 mm; for medial striatum: bregma=0.74 mm, mediolateral=1.4 mm, dorsoventral=2.8 mm. Mice were euthanized one month later after ganciclovir termination.
(§7) Morphological and Phenotypic Analysis of Injected Surviving Cells:
(§8) Anesthetized mice were fixed by intracardiac perfusion of 4% paraformaldehyde in phosphate-buffered saline. Immunohistochemical detection was performed on 10-μm thick free-floating cryostat sections using Alexa 488-, or 555-labeled secondary antibodies or the biotin-avidin-peroxidase complex method (Vector). The following primary antibodies were used: Nestin (rabbit polyclonal anti-human, from Chemicon, 1/400), β3-tubulin (mouse monoclonal from Sigma or rabbit polyclonal from Covance, 1/2000), Neuronal Nuclei-specific protein (NeuN, mouse monoclonal from Chemicon, 1/1000), Glial Fibrillary Acidic Protein (GFAP, rabbit polyclonal from Dako, 1/2000), Proliferating Cell Nuclear Antigen (PCNA, mouse monoclonal from Dako, 1/100), Tyrosin Hydroxylase (TH, rabbit polyclonal from millipore, 1/500), iba 1 (polyclonal rabbit from Wako, 1/500), HSV-TK (mouse monoclonal, Gentaur, 1/100), ki67 (monoclonal rabbit, Abcam, 1/100 or mouse, Chemicon, 1/100).
BrdU (100 mg/kg, Millipore) was injected intraperitoneally twice daily for 3 consecutive days. Mice were sacrificed 5 days later and perfused, through the heart, with PBS and 4% paraformaldehyde in PBS. […]

[3] = test system: TK-PSC transplanted into the striatum; assay: Transplantation of TK-PSC into striatum and ganciclovir treatment (teratoma formation); assay type: in vivo, NOD/SCID mice
Experimental: FIGS. 3A-3C: Schedule of cell transplantation and ganciclovir treatment. Different transplantation and ganciclovir treatment protocols were used. (A) Schematic representation of the differentiation protocol towards DA neurons. Pluripotent stem cells were cultured as neurospheres for 1 week for midbrain orientation phase, followed by a 2 or 3 week-maturation phase. (B) Transplantation of undifferentiated pluripotent stem cells with early or late ganciclovir treatment. Early treatment: undifferentiated pluripotent stem cells were transplanted and ganciclovir (or PBS control) was applied by daily intra-peritoneal injection from day 4 to day 19 post-transplantation. Late treatment: undifferentiated pluripotent stem cells were transplanted and ganciclovir (or PBS control) was applied by daily intra-peritoneal injection from day 30 to day 45 post-transplantation. (C) Transplantation of 2 or 3 week NPC: NPC containing—neurospheres were dissociated and transplanted into mice striatum. Ganciclovir (or PBS control) treatment was given from day 4 to day 19 post-transplantation. For all protocols, animals were sacrificed 1 month after termination of ganciclovir treatment.
as §5, §6, §7, §8

[4] = test system: HEK cells transfected with HSV-TK plasmid; assay: Cell proliferation/viability assay, high copy number plasmid, HSV-TK; assay type: cell-based
Experimental: (§9) In further experiments, cell proliferation assay was performed using different suicide gene constructs in combination with various drugs, such as acyclovir, ganciclovir, or pencilovir. In the first assay, a kinase from human cytomegalovirus (CMV), UL97, was used as a novel suicide gene. The HEK cells were transfected with a high copy number of the respective plasmids.

[5] = test system: HEK cells transfected with UL97 under the UBI promoter; assay: Cell proliferation/viability assay, high copy number plasmid, UL97; assay type: cell-based
Experimental: as §9

Nc1nc2c(ncn2COCCO)c(=O)[nH]1 [acyclovir, Acyclovir]
concentration needed to kill SR39-transduced cells (SR39-transduced cells): very high concentrations | concentration needed to kill HSV-TK-transduced cells (HSV-TK-transduced cells): very high concentrations

Nc1nc(O)c2ncn(COC(CO)CO)c2n1 [ganciclovir, Ganciclovir]
concentration needed to kill SR39-transduced cells (SR39-transduced cells): relatively low concentration | time in which TK PSCs were killed ([1]; 40 μM): ≤ 4 days | sensitivity of TK PSCs to ganciclovir exposure ([1]; 96h exposure): highly sensitive | ganciclovir concentration at which loss of cells was almost complete ([1]; TK PSCs, 96h exposure): 10 µM | ganciclovir concentration at which loss of cells was observed ([1]; TK PSCs, 96h exposure): 2.5 µM | effect on regular (control) PSCs [2]: resistant; also recorded: no ganciclovir toxicity is observed | time to complete killing of TK-NPCs (TK-NPCs; TK-NPCs after 1 week of neurosphere differentiation): 8 days | killing of TK-NPCs (TK-NPCs; TK-NPCs after 2 weeks of neurosphere differentiation): not killed | toxicity to non-transduced cells (non-transduced cells; at high concentrations): toxic | concentration needed to kill HSV-TK-transduced cells (HSV-TK-transduced cells): relatively low concentration | effect on control neurons (control neurons): not affected | size of NPC transplants (graft surface) (TK-NPC transplants; NPC derived from 2-3 weeks old neurospheres): not affected | PCNA / Ki67 staining pattern of transplants (TK-NPC transplants; NPC transplants): did not alter this pattern | neural markers of transplanted cells (beta 3 tubulin, TH, nestin) (TK-NPC transplants; immunofluorescence 7 weeks after transplantation): None of these markers were affected | graft development, PBS versus ganciclovir (TK-NPC transplants; treated on days 7-22 following transplantation, sacrifice 4 weeks after end of treatment): No difference was observed | teratoma formation, early ganciclovir treatment ([3]; 15 days ganciclovir starting 4 days post-transplantation, daily intra-peritoneal injection): no observed teratomas; also recorded: absence of teratoma formation and cell proliferation | development of large tumors (graft surface), early ganciclovir treatment ([3]; PSC transplanted, early treatment): completely prevented | tumor size (graft surface), late ganciclovir treatment ([3]; PSC transplanted, late treatment): did not have any effect | human cells (HCM) remaining in graft, early ganciclovir treatment ([3]; day 4 to 19 post-transplantation, analysed one month after end of treatment): hardly any human cells left; also recorded: barely detectable | teratoma formation, late ganciclovir treatment ([3]; ganciclovir days 30-45 post-transplantation, sacrifice 30 days after end of treatment): teratoma formation in both; also recorded: no difference | sensitivity of HSV-TK-transfected HEK cells [4]: sensitivity | sensitivity of UL97-transfected HEK cells [5]: showed sensitivity

Nc1nc2c(ncn2CCC(CO)CO)c(=O)[nH]1 [penciclovir, Penciclovir]
concentration needed to kill SR39-transduced cells (SR39-transduced cells): relatively low concentrations | toxicity in untransduced cells (non-transduced cells): did not show any toxicity | concentration needed to kill HSV-TK-transduced cells (HSV-TK-transduced cells): relatively low concentrations

From patent US11542524B2, “Elimination of proliferating cells from stem cell-derived grafts” (priority 2017, dated 2023)
